# Measurements from patent US20230321105A1, “CELL SIGNAL DETECTION AND MODULATION IN DISEASE” (Washington University, priority 2022, published 2023).
# Tests used:
# Serpinb3a = assay: Knockdown of Serpinb3a in tumors by qPCR; format: in vivo, mouse; details: siB3-treated LL2/B3a tumors; average
# Protocol: For xenograft models, female athymic nude mice aged 6-7 weeks old (Charles River) were injected subcutaneously with 5×10^6 Caski/Ctrl or Caski/B3 cells suspended in serum-free IMDM and 50% Matrigel Basement Membrane Matrix (Corning) to a final volume of 100 μl on their flank. For immunocompetent models, female C57/BL6 mice aged 7-8 weeks (Charles River) were injected subcutaneously with 5×10^5 LL2/Ctrl or LL2/B3a cells suspended in 100 μl of PBS into the right flank. To deplete myeloid cells, mice were treated with anti-CD11b antibody (Ultra-LEAF purified anti-mouse CD11b, Biolegend) or isotype IgG2b as control (Ultra-LEAF purified rat IgG2b, Biolegend). […] Tumor volume was measured twice weekly and calculated by (length×width2)/2. […]
# Lipofectamine RNAiMAX (Thermo Fisher) was used for STAT1 siRNA (ID: SASI_Hs02_00343387, SASI_Hs01_00098937, Sigma), STAT3 siRNA (ID: SASI_Hs01_00121206, SASI_Hs01_00061860, Sigma), and negative control siRNA (SIC001, Sigma) transfection, according to the manufacturer's instructions. […] Quantitative polymerase chain reaction (qPCR) was performed using PowerUp SYBR green PCR Master Mix (Applied Biosystems) and the Applied Biosystems 7900 Fast real-time PCR system and software. Each sample was performed in triplicate, gene expression levels were normalized to GAPDH, and fold changes were calculated using the ΔΔCt method. […]
# LL2/B3a tumors = LL2/B3a tumors treated with Serpinb3a siRNA with or without 10 Gy RT; format: in vivo, C57/BL6 mice
# Protocol: Single-cell suspensions were blocked with either Human TruStain FcX Solution (422301, Biolegend) or mouse TruStain FcX PLUS (anti-mouse CD16/32) Antibody (S17011E, Biolegend) to avoid nonspecific Fc receptor binding and stained with LIVE/DEADFixable Dead Cell Stain Kit (MACS) to exclude dead cells. For surface staining, cells were incubated with the appropriate antibodies for 30 min at 4° C. Intracellular cytokine and nuclear staining was performed after surface staining using Cyto-Fast Fix/Perm Buffer Set and True-Nuclear Transcription Factor Buffer Set, respectively (BioLegend). Data analysis including viSNE and FlowJo plugin FlowSOM were performed on FlowJo v.10 (TreeStar). A range of 20,000 to 60,000 live cells was acquired and individual flow cytometry data from each group were combined into a single data file for generating viSNE. Color-coded subpopulations were gated by pre-defined markers for each immune cell type and overlaid to the viSNE plots for total CD45+ cells from tumors. All flow cytometry gating plots, histograms, and statistics were generated on FlowJo.
# For xenograft models, female athymic nude mice aged 6-7 weeks old (Charles River) were injected subcutaneously with 5×10^6 Caski/Ctrl or Caski/B3 cells suspended in serum-free IMDM and 50% Matrigel Basement Membrane Matrix (Corning) to a final volume of 100 μl on their flank. For immunocompetent models, female C57/BL6 mice aged 7-8 weeks (Charles River) were injected subcutaneously with 5×10^5 LL2/Ctrl or LL2/B3a cells suspended in 100 μl of PBS into the right flank. To deplete myeloid cells, mice were treated with anti-CD11b antibody (Ultra-LEAF purified anti-mouse CD11b, Biolegend) or isotype IgG2b as control (Ultra-LEAF purified rat IgG2b, Biolegend). Antibodies were administered through intraperitoneal injection at the initial dose of 300 μg in 150 μl PBS on day 10 post-tumor inoculation, and a subsequent dose of 150 μg in 100 μl PBS every three days. To knock down Serpinb3a, mice received either mSerpinb3a siRNA (5′-ACAUCGAAUUUAACUUCAUtt-3′; 5′-AUGAAGUUAAAUUCGAUGUtt-3′; ID:s73336, Thermo) or control siRNA (Ambion in vivo negative control #1 Thermo) complexed with Invivofectamine 3 (Thermo Fisher) as per manufacturer's protocol. Mice received three intratumoral injections of 10 μg siRNA on days 9, 11, and 13 post-tumor inoculation before radiation treatment performed on day 14. On days 16 and 19, mice received 20 μg siRNA via intraperitoneal injection. For radiation treatment, mice were randomized to receive sham or 10Gy RT using the Xstrahl Small Animal Radiation Research Platform (SARRP) 200 (Xstrahl Life Sciences). Tumor volume was measured twice weekly and calculated by (length×width2)/2. For tissue dissociation, tumors were manually dissected and digested with 1 mg/ml Collagenase, 0.5 mg/ml hyaluronidase, and 10 mg/mL DNase I type IV (Sigma), and transferred to a tissue disaggregator (Medicon, BectonDickinson) using a CTSV (Medimachine II, BectonDickinson) and tissue homogenates were filtered through a 100 μm strainer. Spleens were dissociated by being pressed through a 70 μm filter. Animal work was approved by the Washington University Institute Institutional Animal Care and Use Committee (Protocol #20-0470).
# T cells isolated using MojoSort mouse CD3 T cell isolation kit (Biolegend) were labeled with CellTrace violet and activated with CD3/CD28 Dynabeads (Thermo Fisher) for 4 days to evaluate proliferation. To examine TNF and IFNr, T cells were stimulated with 500× Cell Activation Cocktail containing 40.5 μM phorbol-12-myristate 13-acetate (PMA) and 669.3 μM ionomycin (Biolegend) in the presence of 5 μg/mL BFA (Biolegend) for 5 h and stained with surface/intracellular markers for FACS analysis.
# Cell culture supernatant was collected at 48 h after fresh media was added to the adherent cells in a monolayer. Cell lysates were prepared using NP-40 buffer (Alfa Aesar). […]
# [1] = test system: pSTAT3 (Tyr705) and CD11b; assay: Immunohistochemistry of mouse tumors treated with Serpinb3a siRNA; format: in vivo
# Protocol: Pretreatment serum SCCA was evaluated by ARUP National Reference Laboratory (Salt Lake City, UT, USA) using ELISA, and tissue microarrays were generated from untreated human tumor specimens. TMA sections were sent to HistoWiz Inc for IHC staining for CD11b (1:100, Abcam ab224800) and IHC for pSTAT3 (1:200, Sigma SAB4300033) was performed by Washington University AMP Core Labs. Mouse tumor sections were stained with pSTAT3 (1:150, Invitrogen PA5-121259) and CD11b (1:500, Invitrogen PA5-79532), using a Pierce peroxidase IHC detection kit (Thermo Fisher). QuPath V0.3.2 software was used for automated analysis using surface and cytoplasmic staining to determine the percent cells positive for CD11b. The staining scores for pSTAT3 were evaluated by the pathologist and calculated by (% of positively stained tumor cells x staining intensity ranged from 0-3). Values from at least two cores from each sample were considered valid and an average score was taken.
# glioma = details: STAT3 inhibitor and irradiation vs either treatment alone; glioma preclinical study; cited from earlier work
Molecule,decrease of Serpinb3a RNA expression in tumors (Serpinb3a),PD-1 in CD8+ T cells (LL2/B3a tumors; RT/siB3 vs RT/siNC),tumor growth inhibition (LL2/B3a tumors; combination of Serpinb3a knockdown with 10 Gy RT (RT/siB3)),tumor growth (LL2/B3a tumors; sham siB3-treated vs sham siNC-treated tumors),CTLA-4 in CD8+ T cells (LL2/B3a tumors; sham/RT siB3 vs siNC tumors),ratio of CD8/Treg (LL2/B3a tumors; sham/RT siB3 vs siNC tumors),CD8+ T cells in tumors (LL2/B3a tumors; sham/siB3 tumors),"M-MDSCs, PMN-MDSCs, and M2 macrophages in tumors (LL2/B3a tumors; sham/siB3 vs sham/siNC tumors, flow cytometry)","expression of CXCL1, and S100A8/A9 in tumor homogenates (LL2/B3a tumors; sham/siNC vs. sham/siB3, ELISA)",proliferative capacity of CD8+ T cells upon anti-CD3/28 stimulation (LL2/B3a tumors; siB3 tumor-derived vs siNC tumor-derived),expression of granzyme B and perforin in CD8+ T cells (LL2/B3a tumors; siB3 tumors),expression of granzyme B and perforin in CD8+ T cells (LL2/B3a tumors; siB3 tumors with radiation treatment),pSTAT3 expression (immunostaining of pSTAT3(Tyr705)) ([1]; LL2/B3a+siB3 tumors),CD11b+ myeloid cell infiltration ([1]; Serpinb3a knockdown tumors),survival (glioma)
"siB3: mSerpinb3a siRNA 5′-ACAUCGAAUUUAACUUCAUtt-3′; 5′-AUGAAGUUAAAUUCGAUGUtt-3′; ID:s73336, Thermo, complexed with Invivofectamine 3 (sense ACAUCGAAUUUAACUUCAUTT; antisense AUGAAGUUAAAUUCGAUGUTT; Invivofectamine 3 complex, further chemistry not given here)",65%,lower,more significant tumor growth inhibition,Reduced tumor growth,lower,higher ratio,increase,significant reduction,significant decrease,markedly higher proliferative capacity,increased expression,further enhanced,significantly reduced,reduced,–
C[C@H](NC(=O)/C(C#N)=C/c1cccc(Br)n1)c1ccccc1 [WP1066],–,–,–,–,–,–,–,–,–,–,–,–,–,–,enhanced survival
